Series [1] deals with A549, HCT116 and HSC4. Put plainly: Cell viability, oxyfedrine with SSZ or BSO, statements for all three lines (Experimental Example 11). The conditions noted are these: 48 hours; for effect on cell survival rate: 400 μM sulfasalazine alone or 100 μM L-buthionine sulfoximine alone. On the procedure: Alveolar basal epithelial adenocarcinoma cell line A549, colon adenocarcinoma cell line HCT116, and oral squamous carcinoma cell line HSC-4, all of which are resistant to sulfasalazine or L-buthionine-sulfoximine, were seeded in 96-well plates at 4000 cells/well, and the culture was started. RPMI was used for the A549 and DMEM was used for the HCT116 and HSC-4 as culture media. After 24 hours, each medium was replaced with a medium containing 50 or 100 μM oxyfedrine or an equal volume of DMSO, and 0 (no sulfasalazine and no L-buthionine sulfoximine) or 400 μM sulfasalazine or 100 μM L-buthionine sulfoximine, and the culture was continued for 48 hours. Then, the cells were assayed for cell viability using CellTiter-Glo (Promega), and a cell survival rate in each case was calculated taking the number of live cells in the control (DMSO added, and sulfasalazine and L-buthionine sulfoximine not added) as 100%.

For series [2], the system named is SSZ-resistant tumor cells (HCT116 and HSC-4). In words: Intracellular GSH levels, GSH-Glo Glutathione Assay (Experimental Example 12). It counts as cell-based. The conditions noted are these: BSO or OXY alone, or SSZ with OXY, after 48 hours. How it is done: SSZ-resistant tumor cells (HCT116 and HSC-4) were used and the cells were treated in a similar manner to that in Example 11, and the intracellular GSH levels were measured after 48 hours using a GSH-Glo Glutathione Assay Kit (Promega).

Series [3] relates to sulfasalazine-resistant tumor cells (HCT116 and HSC-4). Put plainly: Intracellular HNE accumulation, SSZ or BSO with OXY (Experimental Example 13). The format is cell-based. The conditions noted are these: SSZ, BSO or OXY alone, or SSZ or BSO in combination with OXY. How it is done:
(§1) As in Experimental Example 1, HSC-4 cells were cultured in a medium containing 50 μM dyclonine or an equal volume of DMSO and 0 μM (not added) or 400 μM sulfasalazine, and the treated cells were fixed with 4% PFA-PBS. Then, the cells were permeabilized with 0.2% Triton X100-PBS, followed by blocking with 3% BSA-PBS. Subsequently, fluorescent staining was performed using an anti-HNE antibody as the primary antibody and AlexaFluor 488-conjugated anti-mouse IgG antibody as the secondary antibody. As a positive control, cells incubated with 50 μM HNE for 30 min were used and stained using antibodies in a similar manner.
In this experimental example, sulfasalazine-resistant tumor cells (HCT116 and HSC-4) were used, and the cells were treated as in Experimental Example 6 and then observed under a fluorescence microscope.

In series [4] the test system is ALDH. Put plainly: ALDH activity, ALDEFLUOR Kit with FACS in HSC-4 cells (Experimental Example 5). The format is cell-based. The conditions noted are these: 50 μM dyclonine 24 hours, or DEAB, DMSO-treated cells approximately 25%. How it is done: HSC-4 cells, a sulfasalazine-resistant oral squamous carcinoma cell line, were seeded at 8×10^5 cells/dish in 10-cm cell culture dishes, and culture was started. DMEM was used as the culture medium. After 24 hours, the medium was replaced with a medium containing 50 μM dyclonine (solvent: DMSO), and the cells were cultured for another 24 hours. The cells were then collected, stained with the ALDEFLUOR Kit (STEMCELL Technologies) for ALDH activity in the presence of N,N-diethylaminobenzaldehyde (DEAB), and analyzed by FACS (“Dyclonine” in the figure). As a control, experimental results are shown for cells cultured in the absence of DEAB which were not stained with the ALDEFLUOR Kit (“Unstained” in the figure), and cells that were stained with the ALDEFLUOR Kit after replacing the medium with an equal volume of medium with DMSO and without dyclonine (“Non-treatment” in the figure). For the positive cell counts, a gate was set to gate out positive cells to almost 0% in the DMSO-treated sample stained with the ALDEFLUOR Kit in the presence of DEAB (“DEAB” in the figure), and the positive rate in each case was calculated.

The test system of series [5] is A549 cells. Put plainly: Cell viability, Nrf2 siRNA or ML385 with OXY and SSZ or BSO (Experimental Example 18). It counts as cell-based. The conditions noted are these: in addition to 400 μM SSZ and 50 μM OXY, 48 hours. How it is done: A549 cells were transfected with siRNA against the Nrf2 gene as in Example 17, or the medium was supplemented with ML385 that is an Nrf2 inhibitor. Cells were cultured for 48 hours in a medium containing 50 μM OXY, and 400 μM SSZ or 100 μM BSO, as in Example 11. Then, the cells were assayed for cell viability. As a control, the experiments were performed in a medium without any of the above. DMSO, however, was added appropriately to add a constant volume of DMSO in all cases.

Series [6] has as its system HSC-4, a sulfasalazine-resistant oral squamous carcinoma cell line. In words: Cell viability (CellTiter-Glo), sulfasalazine and dyclonine (Experimental Example 1). The format is cell-based. The conditions noted are these: 48 hours. On the procedure:
HSC-4, a sulfasalazine-resistant oral squamous carcinoma cell line, was seeded in a 96-well plate at 2000 cells/well, and culture was started. DMEM was used as the culture medium. After 24 hours, the medium was replaced with a medium containing 50 μM dyclonine or an equal volume of DMSO, as well as 0 (not added), 50, 100, 200, or 400 μM sulfasalazine, and the culture was continued for 48 hours.

Series [7] has as its system HSC-4 cells. In words: Dyclonine sensitivity after xCT knockdown, cell viability (Experimental Example 2). It counts as cell-based. The settings on record: 48 hours. How it is done: HSC-4 cells, a sulfasalazine-resistant oral squamous carcinoma cell line, were seeded in a 96-well plate at 3000 cells/well, and nonsilencing control (scrambled (Sense: UUCUCCGAACGUGUCACGUtt (SEQ ID NO. 1), Antisense: ACGUGACACGUUCGGAGAAtt (SEQ ID NO. 2))) and siRNA or xCT specific siRNA (xCT siRNA #1 Sense: AGAAAUCUGGAGGUCAUUAtt (SEQ ID NO. 3), Antisense: […] (SEQ ID NO. 4), xCT siRNA #2 Sense: CCAGAACAUUACAAAUAAUtt (SEQ ID NO. 5), Antisense: AUUAUUUGUAAUGUUCUGGtt (SEQ ID NO. 6)) were lipofected using Lipofectamine RNAiMAX (Thermo Fisher Scientific), and culture was started. DMEM was used as the culture medium. After 24 hours, the medium was replaced with a medium containing 50 μM dyclonine (solvent: DMSO) or an equal volume of DMSO, and the culture was continued for 48 hours.

For series [8], the system named is HSC-4 cells. In words: Intracellular HNE accumulation, anti-HNE fluorescent staining (Experimental Example 6). It counts as cell-based. The conditions noted are these: 50 μM dyclonine and/or 400 μM sulfasalazine. How it is done: as §1
For series [9], the system named is SSZ-resistant tumor cells (HCT116 and HSC-4). Put plainly: Cell survival rate after ionizing radiation in the presence of OXY (Experimental Example 16). The settings on record: irradiated at 4, 6 or 10 Gy in the presence of 50 μM OXY, after 24 hours; versus irradiation or OXY alone. The format is cell-based. How it is done: (§2) In this experimental example, SSZ-resistant tumor cells (HCT116 and HSC-4) were irradiated with ionizing radiation at a dose of 4, 6, or 10 Gy using an X-ray irradiation system (Hitachi MBR-1520R-4, settings: 150 kV, 20 mA) in the presence of 50 μM oxyfedrine (OXY). In parallel, samples without OXY and ionizing radiation (0 Gy) were processed as a control. After 24 hours, cell survival rate was calculated as in Experimental Example 1. In addition, intracellular HNE was visualized as in Experimental Example 6.

Series [10] has the same test system. In words: Intracellular HNE after ionizing radiation in the presence of OXY (Experimental Example 16). It counts as cell-based. The conditions noted are these: irradiation and 50 μM OXY treatment in combination. On the procedure:
as §2

For series [11], the system named is sulfasalazine-resistant, oral squamous carcinoma cell line HSC-2. In words: In vivo tumor weight, X-irradiation and oxyfedrine (Experimental Example 19). Further details: species or system nude mice. The conditions noted are these: oxyfedrine 20-30 mg/kg intraperitoneally Days 1-7, versus non-treated group. How it is done:
The mice were injected intraperitoneally with oxyfedrine (OXY) (20 mg/kg) for 3 consecutive days (Days 1-3) immediately after transplantation. On Day4, oxyfedrine (30 mg/kg) was intraperitoneally administered, and X-rays (4, 6, or 10 Gy) were irradiated to the nude mice 2 hours later. Then, after intraperitoneal administration of oxyfedrine (20 mg/kg) for 3 days (Days 5-7), tumors were collected on Day 7 and weighed. The results are shown in a bar graph in FIG. 21. The groups of nude mice on which transplantation was performed in the same way, to which oxyfedrine was administered in the same way without X-irradiation, and to which no oxyfedrine was administered with X-irradiation in the same way, were used as controls. For statistical treatment, Student's 1-test was performed between the oxyfedrine and non-treated groups for each X-ray dose, and p value of less than 0.05 was considered significant.

In series [12] the test system is A549 cells. In words: Western blotting after Nrf2 siRNA lipofection (Experimental Example 17). It counts as cell-based. The settings on record: 48 hours after lipofection. On the procedure:
Nrf2, xCT, and β-actin expressions were detected in the extracts of SSZ-resistant tumor cells (HCT116, HSC-4, and A549) via Western blotting with primary antibodies against Nrf2, xCT, and β-actin and HRP-conjugated secondary antibody. Chemiluminescence Reagent Plus (Perkin-Elmer Japan) was used for detection.
Next, siRNA against the Nrf2 gene was lipofected into A549 cells to suppress the Nrf2 gene expression. The extracts of the lipofected A549 cells were prepared after 48 hours and the expressions of Nrf2, xCT, ALDH3A1, and β-actin were examined via Western blotting in the same way as above. The following sequences (bases shown in lower case are DNA overhangs) were used as siRNA.

The record followed here is patent publication US20220347125A1, “ANTITUMOR AGENT AND COMPOUNDING AGENT” (Keio University, priority 2019, published 2022).

d = 2'-deoxy (DNA); r = 2'-OH (RNA)

In the case of `CCCCS(=N)(=O)CC[C@H](N)C(=O)O` (stereo partly drawn) [BSO, L-buthionine-sulfoximine], in series [1], the “effect on cell survival rate” value was “little effect”. The “intracellular GSH levels” value in series [2] was “reduced”. The “intracellular HNE levels and frequency” value in series [3] was “increased intracellular HNE levels were observed at a low frequency”.
On to `CCN(CC)c1ccc(C=O)cc1` [DEAB, N,N-diethylaminobenzaldehyde], for which, in series [4], the “cell population with high ALDH activity” value was “approximately 1%”.
Consider `Cc1ccccc1C(=O)N1CCc2cc(-c3nc(NC(=O)Cc4ccc5c(c4)OCO5)sc3C)ccc21` [ML385], for which the cell survival rate result in series [5] is “effectively reduced”.
Take `CCCCOc1ccc(C(=O)CCN2CCCCC2)cc1` [dyclonine]: the cell survival in series [6] (50 μM dyclonine alone, no sulfasalazine added, control (DMSO) = 100%) is 80%. The entries for the “HSC-4 cell survival rate” value in [7] (50 μM dyclonine alone (nonsilencing control)) and in [7] (xCT knockdown (xCT siRNA) in the presence of 50 μM dyclonine) were “approximately 60%” and 10-20%, respectively. Moreover, the “cell population with high ALDH activity” value in [4] was “approximately 1%”. In series [8], the “intracellular HNE level and frequency” value is listed as “an increase in intracellular HNE level was observed at a low frequency”.
Consider `O=C(O)c1cc(/N=N/c2ccc(S(=O)(=O)Nc3ccccn3)cc2)ccc1O` [sulfasalazine], for which the “effect on cell survival” value in series [6] (sulfasalazine alone, 50-400 μM) is on record as “almost no effect”. The “intracellular HNE level and frequency” value in [8] is “an increase in intracellular HNE level was observed at a low frequency”. The “effect on cell survival rate” value in [1] is on record as “little effect”. In addition, the “intracellular GSH levels” value in [2] was “reduced”. Further, in series [3], the “intracellular HNE levels and frequency” value is recorded as “increased intracellular HNE levels were observed at a low frequency”.
With oxyfedrine, the cytotoxic effect result in [1] (50 μM oxyfedrine alone, without sulfasalazine) was “no significant cytotoxic effect”. Besides, the “intracellular GSH levels” value in series [2] is given as “did not reduce the intracellular GSH levels”. Further, the “intracellular HNE levels and frequency” value in series [3] is on record as “increased intracellular HNE levels were observed at a low frequency”. Also, the cell survival rate entry in [9] was “significantly and markedly reduced”. In addition, in series [10], the “intracellular HNE-accumulating cells” value is listed as “high levels of intracellular HNE-accumulating cells were observed at a high frequency”. In addition, the tumor weight gain result was “tended to be suppressed” in [11] (4 Gy X-irradiation), “significantly suppressed” in series [11] (6 Gy X-irradiation), “significantly suppressed” in [11] (10 Gy X-irradiation) and “tended to be suppressed” in series [11] (without X-irradiation).
In the case of “siRNA against the Nrf2 gene: siRNA against the Nrf2 gene, SEQ ID NO. 9 and 10 (chain 1 UCCUACUGUGAUGUGAAAUTT; chain 2 AUUUCACAUCACAGUAGGAGC; sugars from the 5' end r19 d2, backbone not given here)”, the “expressions of xCT and ALDH3A1” value in series [12] was “suppressed”. The cell survival rate entry in [5] is “effectively reduced”.
